We go through eleven compounds from patent US6177438A, “Morphinan derivatives and pharmaceutical use thereof” (priority 1993, dated 2001).

The subject of the test is acetic acid-induced writhing in ddy mice. Description: animal or person. In kind it is in vivo, 5 week old ddy mice. The following applies: s.c. 15 minutes before acetic acid. As to the method: 5 week old ddy mice were used in this test. After intraperitoneal administration of 0.1 ml of 0.6% aqueous acetic acid per 10 g of body weight, the number of writhing reactions that occurred in 10 minutes starting 10 minutes after administration was evaluated for the indicator. The test drug was administered subcutaneously into the backs of the animals 15 minutes before administration of acetic acid.

The mark [1] stands for this setting: Mus musculus, sc, read-out: ED50.

For orientation: ED50 means the midpoint of the dose-response relation.

Structures can show the parent of a compound that is named as a salt. Where two headings read alike, the source gives them in different places.

In the case of `CN(C(=O)Cc1ccc(N)cc1)[C@H]1CC[C@@]2(O)[C@H]3Cc4ccc(O)c5c4[C@@]2(CCN3CC2CC2)[C@H]1O5` [Compound 137, 17-cyclopropylmethyl-3,14β-dihydroxy-4,5α-epoxy-6α-(N-methyl-4-aminophenylacetamido)morphinanan.cndot.1.6 hydrochloride], the ED50 under setting [1] stood at 0.17 mg/kg.
On to `COc1ccc2c3c1O[C@H]1[C@H](N(C)C(=O)/C=C/c4ccoc4)CC[C@@]4(O)[C@@H](C2)N(CC2CC2)CC[C@]314` [Compound 217, 17-cyclopropylmethyl-4,5α-epoxy-14β-hydroxy-3-methoxy-6β-[N-methyl-trans-3-(3-furan)acrylamido]morphinan hydrochloride], for which the ED50 under setting [1] is 0.018 mg/kg.
On the same count and under the same terms, the figure for `CN(C(=O)C#Cc1ccoc1)[C@@H]1CC[C@@]2(O)[C@H]3Cc4ccc(O)c5c4[C@@]2(CCN3CC2CC2)[C@H]1O5.O=C(O)C(O)C(O)C(=O)O` [Compound 177, 17-cyclopropylmethyl-3,14β-dihydroxy-4,5α-epoxy-6β-[N-methyl-(3-furyl)propiolamido]morphinan tartrate] is 0.0096 mg/kg; for `CCN(C(=O)Cc1ccc(Cl)c(Cl)c1)[C@@H]1CC[C@@]2(O)[C@H]3Cc4ccc(O)c5c4[C@@]2(CCN3CC2CC2)[C@H]1O5` [Compound 54, 17-cyclopropylmethyl-4,5α-epoxy-3,14β-dihydroxy-6β-(N-ethyl-3,4-dichlorophenylacetoamido)morphinan.cndot.hydrochloride] it is 0.72 mg/kg.
On the same count and under the same terms, the figure for `CN(C(=O)/C=C/c1ccsc1)[C@@H]1CC[C@@]2(O)[C@H]3Cc4ccc(O)c5c4[C@@]2(CCN3CC2CC2)[C@H]1O5` [Compound 71, 17-cyclopropylmethyl-3,14β-dihydroxy-4,5α-epoxy-6β-[N-methyl-trans-3-(3-thienyl)acrylamido]morphinan.cndot.methanesulfonate] is 0.0042 mg/kg.
On the same count and under the same terms, for `CN(C(=O)C#Cc1ccoc1)[C@H]1CC[C@@]2(O)[C@H]3Cc4ccc(O)c5c4[C@@]2(CCN3CC2CC2)[C@H]1O5.O=C(O)C(O)C(O)C(=O)O` [Compound 188, 17-cyclopropylmethyl-3,14β-dihydroxy-4,5α-epoxy-6α-[N-methyl-(3-furyl)propiolamido]morphinan tartrate] the value was 0.002 mg/kg; for `CN(C(=O)CCCCCc1ccccc1)[C@@H]1CC[C@@]2(O)[C@H]3Cc4ccc(O)c5c4[C@@]2(CCN3CC2CC2)[C@H]1O5` [Compound 202, 17-cyclopropylmethyl-3,14β-dihydroxy-4,5α-epoxy-6β-(N-methyl-6-phenylhexanoamido)morphinan hydrochloride], 0.083 mg/kg.
Turning to `CN(C(=O)C#Cc1ccco1)[C@@H]1CC[C@@]2(O)[C@H]3Cc4ccc(O)c5c4[C@@]2(CCN3CC2CC2)[C@H]1O5.Cl` [Compound 175, 17-cyclopropylmethyl-3,14β-dihydroxy-4,5α-epoxy-6β-[N-methyl-3-(2-furyl)propiolamido]morphinan hydrochloride], the ED50 under setting [1] was found to be 0.018 mg/kg.
Turning to `Br.CN(C(=O)/C=C/c1cc(Br)cs1)[C@@H]1CC[C@@]2(O)[C@H]3Cc4ccc(O)c5c4[C@@]2(CCN3CC2CC2)[C@H]1O5` (relative stereo) [Compound 157, 17-cyclopropylmethyl-3,14β-dihydroxy-4,5α-epoxy-6β-[N-methyl-trans-3-(4-bromo-2-thienyl)acrylamido]morphinan hydrobromide], the median effective dose (ED50) under setting [1] stood at 0.003 mg/kg.
Take `Cc1ccc(C#CC(=O)N(C)[C@@H]2CC[C@@]3(O)[C@H]4Cc5ccc(O)c6c5[C@@]3(CCN4CC3CC3)[C@H]2O6)cc1.Cl` [Compound 171, 17-cyclopropylmethyl-3,14β-dihydroxy-4,5α-epoxy-6β-[N-methyl-3-(4-methylphenyl)propiolamido]morphinan hydrochloride]: the ED50 came out at 0.038 mg/kg.
In the case of `CN(C(=O)Cc1ccccc1)[C@@H]1CC[C@@]2(O)[C@H]3Cc4ccc(O)c5c4[C@@]2(CCN3CC2CC2)[C@H]1O5` [Compound 55, 17-cyclopropylmethyl-3,14β-dihydroxy-4,5α-epoxy-6β-(N-methylphenylacetamido)morphinan.cndot.hydrochloride], the ED50 under setting [1] was 0.98 mg/kg.
